According to patent publication US11053204B2, “Pyrimidinyloxy benzene derivatives as herbicides” (FMC Corporation, priority 2015, dated 2021):

Columns and labels:
Type in all cases: in vivo
[1] = system: barnyardgrass (Echinochloa crus-galli); test: Test A postemergence, visual injury rating; conditions: 0 is no effect, 100 is complete control
Procedure, shortened: (§1)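 Pre- and postemergence greenhouse screen. Soil: loam + sand. Spray carrier: solvent mixture, non-phytotoxic, with surfactant. Post timing at 1–2 leaves, height 2–10 cm. Readout: visual injury on a 0–100 scale roughly 10 days after application, untreated plants as reference.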

kochia (Kochia scoparia) [2] = test: Test A postemergence, visual injury rating; conditions: 0 is no effect, 100 is complete control; for Kochia plant response rating: 125 g ai/ha, 0 to 100 scale, approximately 10 days; for Kochia plant response rating (0 to 100 scale): 500 g ai/ha
Procedure, shortened: as §1

corn (Zea mays) = test: Test A postemergence, visual injury rating; conditions: 0 is no effect, 100 is complete control
Procedure, shortened: as §1

[3] = system: galium (catchweed bedstraw, Galium aparine); test: Test A postemergence, visual injury rating; conditions: 0 is no effect, 100 is complete control
Procedure, shortened: as §1

[4] = system: blackgrass (Alopecurus myosuroides); test: Test A postemergence, visual injury rating; conditions: 0 is no effect, 100 is complete control
Procedure, shortened: as §1

[5] = system: pigweed (Amaranthus retroflexus); test: Test A postemergence, visual injury rating; conditions: 0 is no effect, 100 is complete control; for Pigweed plant response rating: 125 g ai/ha, 0 to 100 scale, approximately 10 days; for Pigweed plant response rating (0 to 100 scale): 500 g ai/ha
Procedure, shortened: as §1

[6] = system: wheat (Triticum aestivum); test: Test A postemergence, visual injury rating; conditions: 0 is no effect, 100 is complete control; for Wheat plant response rating: 125 g ai/ha, 0 to 100 scale, approximately 10 days; for Wheat plant response rating (0 to 100 scale): 500 g ai/ha
Procedure, shortened: as §1

[7] = system: giant foxtail (Setaria faberii); test: Test A postemergence, visual injury rating; conditions: 0 is no effect, 100 is complete control
Procedure, shortened: as §1

[8] = system: Italian ryegrass (Lolium multiflorum); test: Test A postemergence, visual injury rating; conditions: 0 is no effect, 100 is complete control; for Ryegrass, Italian plant response rating: 125 g ai/ha, 0 to 100 scale, approximately 10 days; for Ryegrass, Italian plant response rating (0 to 100 scale): 500 g ai/ha
Procedure, shortened: as §1

[9] = system: ragweed (common ragweed, Ambrosia elatior); test: Test A postemergence, visual injury rating; conditions: 0 is no effect, 100 is complete control; for Ragweed plant response rating: 125 g ai/ha, 0 to 100 scale, approximately 10 days; for Ragweed plant response rating (0 to 100 scale): 500 g ai/ha
Procedure, shortened: as §1

[10] = system: surinam grass (Brachiaria decumbens); test: Test C preemergence, plant response rating
[11] = system: barnyardgrass (Echinochloa crus-galli); test: Test A preemergence, visual injury rating; conditions: 0 to 100 scale (0 no effect, 100 complete control)
Procedure, shortened: as §1

kochia (Kochia scoparia) [12] = test: Test A preemergence, visual injury rating; conditions: 0 to 100 scale (0 no effect, 100 complete control)
Procedure, shortened: as §1

[13] = system: pigweed (Amaranthus retroflexus); test: Test A preemergence, visual injury rating; conditions: 0 to 100 scale (0 no effect, 100 complete control)
Procedure, shortened: as §1

[14] = system: giant foxtail (Setaria faberii); test: Test A preemergence, visual injury rating; conditions: 0 to 100 scale (0 no effect, 100 complete control)
Procedure, shortened: as §1

[15] = system: Italian ryegrass (Lolium multiflorum); test: Test A preemergence, visual injury rating; conditions: 0 to 100 scale (0 no effect, 100 complete control)
Procedure, shortened: as §1

[16] = system: ragweed (common ragweed, Ambrosia elatior); test: Test A preemergence, visual injury rating; conditions: 0 to 100 scale (0 no effect, 100 complete control)
Procedure, shortened: as §1

[17] = system: pigweed, palmer (palmer pigweed, Amaranthus palmeri); test: Test C preemergence, plant response rating
kochia (Kochia scoparia) [18] = test: Test C preemergence, plant response rating

`CCCC(=O)c1c(Br)cccc1Oc1ncc(Cl)cn1` [Compound 75] was tested, and the “Barnyardgrass plant response rating (0 to 100 scale)” value ([1]; 125 g ai/ha) was 90, the “Barnyardgrass plant response rating (0 to 100 scale)” value ([1]; 500 g ai/ha) was 100 and the “Kochia plant response rating” value (kochia (Kochia scoparia) [2]) was 100. The “Kochia plant response rating (0 to 100 scale)” value (kochia (Kochia scoparia) [2]) was 100, the “Corn plant response rating (0 to 100 scale)” value (shortened to “Corn plant response rating”) (corn (Zea mays); 125 g ai/ha) was 80 and the “Corn plant response rating” value (corn (Zea mays); 500 g ai/ha) was 90. For the same compound, the “Galium plant response rating (0 to 100 scale)” value (“Galium plant response rating” below) ([3]; 125 g ai/ha) was 80, the “Galium plant response rating” value ([3]; 500 g ai/ha) was 100 and the “Blackgrass plant response rating (0 to 100 scale)” value (“Blackgrass plant response rating” below) ([4]; 125 g ai/ha) was 40. For the same compound, the “Blackgrass plant response rating” value ([4]; 500 g ai/ha) was 60, the “Pigweed plant response rating” value [5] was 100 and the “Pigweed plant response rating (0 to 100 scale)” value [5] was 100. For the same compound, the “Wheat plant response rating” value [6] was 20, the “Wheat plant response rating (0 to 100 scale)” value [6] was 70 and the “Foxtail, Giant plant response rating (0 to 100 scale)” value (“Foxtail … (0 to 100 scale)” below) ([7]; 125 g ai/ha) was 90. For the same compound, the “Foxtail … (0 to 100 scale)” value ([7]; 500 g ai/ha) was 100, the “Ryegrass, Italian plant response rating” value [8] was 40 and the “Ryegrass, Italian plant response rating (0 to 100 scale)” value [8] was 70. For the same compound, the “Ragweed plant response rating” value [9] was 30, the “Ragweed plant response rating (0 to 100 scale)” value [9] was 40 and the “Plant response rating, Surinam Grass” value ([10]; 16 g ai/ha, scale 0 to 100) was 0. For the same compound, the “Plant response rating, Surinam Grass” value ([10]; 31 g ai/ha, scale 0 to 100) was 30, the “Plant response rating, Surinam Grass” value ([10]; 62 g ai/ha, scale 0 to 100) was 35 and the “Plant response rating, Surinam Grass” value ([10]; 125 g ai/ha, scale of 0 to 100) was 80. For the same compound, the “Barnyardgrass plant response rating” value ([11]; 125 g ai/ha) was 100, the “Barnyardgrass plant response rating” value ([11]; 500 g ai/ha) was 100 and the “Kochia plant response rating” value (kochia (Kochia scoparia) [12]; 125 g ai/ha) was 80. For the same compound, the “Kochia plant response rating” value (kochia (Kochia scoparia) [12]; 500 g ai/ha) was 100, the “Pigweed plant response rating” value ([13]; 125 g ai/ha) was 100 and the “Pigweed plant response rating” value ([13]; 500 g ai/ha) was 100. The “Foxtail, Giant plant response rating” value ([14]; 125 g ai/ha) was 100, the “Foxtail, Giant plant response rating” value ([14]; 500 g ai/ha) was 100 and the “Ryegrass, Italian plant response rating” value ([15]; 125 g ai/ha) was 80. The “Ryegrass, Italian plant response rating” value ([15]; 500 g ai/ha) was 100, the “Ragweed plant response rating” value ([16]; 125 g ai/ha) was 0 and the “Ragweed plant response rating” value ([16]; 500 g ai/ha) was 10. The “Plant response rating, Pigweed, Palmer” value ([17]; 16 g ai/ha, scale 0 to 100) was 70, the “Plant response rating, Pigweed, Palmer” value ([17]; 31 g ai/ha, scale 0 to 100) was 100 and the “Plant response rating, Pigweed, Palmer” value ([17]; 62 g ai/ha, scale 0 to 100) was 95. For the same compound, the “Plant response rating, Pigweed, Palmer” value ([17]; 125 g ai/ha, scale of 0 to 100) was 100, the “Plant response rating, Kochia” value (kochia (Kochia scoparia) [18]; 16 g ai/ha, scale 0 to 100) was 0 and the “Plant response rating, Kochia” value (kochia (Kochia scoparia) [18]; 31 g ai/ha, scale 0 to 100) was 50. The “Plant response rating, Kochia” value (kochia (Kochia scoparia) [18]; 62 g ai/ha, scale 0 to 100) was 90 and the “Plant response rating, Kochia” value (kochia (Kochia scoparia) [18]; 125 g ai/ha, scale of 0 to 100) was 100.

For `CCCCC(=O)c1c(Br)cccc1Oc1ncc(Cl)cn1` [Compound 79], the “Barnyardgrass plant response rating (0 to 100 scale)” value ([1]; 125 g ai/ha) was 90, the “Barnyardgrass plant response rating (0 to 100 scale)” value ([1]; 500 g ai/ha) was 100 and the “Kochia plant response rating” value (kochia (Kochia scoparia) [2]) was 100. For the same compound, the “Kochia plant response rating (0 to 100 scale)” value (kochia (Kochia scoparia) [2]) was 100, the “Corn plant response rating” value (corn (Zea mays); 125 g ai/ha) was 80 and the “Corn plant response rating” value (corn (Zea mays); 500 g ai/ha) was 90. The “Galium plant response rating” value ([3]; 125 g ai/ha) was 90, the “Galium plant response rating” value ([3]; 500 g ai/ha) was 100 and the “Blackgrass plant response rating” value ([4]; 125 g ai/ha) was 50. For the same compound, the “Blackgrass plant response rating” value ([4]; 500 g ai/ha) was 90, the “Pigweed plant response rating” value [5] was 100 and the “Pigweed plant response rating (0 to 100 scale)” value [5] was 100. The “Wheat plant response rating” value [6] was 20, the “Wheat plant response rating (0 to 100 scale)” value [6] was 30 and the “Foxtail … (0 to 100 scale)” value ([7]; 125 g ai/ha) was 80. For the same compound, the “Foxtail … (0 to 100 scale)” value ([7]; 500 g ai/ha) was 80, the “Ryegrass, Italian plant response rating” value [8] was 90 and the “Ryegrass, Italian plant response rating (0 to 100 scale)” value [8] was 90. The “Ragweed plant response rating” value [9] was 30, the “Ragweed plant response rating (0 to 100 scale)” value [9] was 40 and the “Plant response rating, Surinam Grass” value ([10]; 16 g ai/ha, scale 0 to 100) was 5. The “Plant response rating, Surinam Grass” value ([10]; 31 g ai/ha, scale 0 to 100) was 30, the “Plant response rating, Surinam Grass” value ([10]; 62 g ai/ha, scale 0 to 100) was 50 and the “Plant response rating, Surinam Grass” value ([10]; 125 g ai/ha, scale of 0 to 100) was 85. For the same compound, the “Barnyardgrass plant response rating” value ([11]; 125 g ai/ha) was 100, the “Barnyardgrass plant response rating” value ([11]; 500 g ai/ha) was 100 and the “Kochia plant response rating” value (kochia (Kochia scoparia) [12]; 125 g ai/ha) was 80. For the same compound, the “Kochia plant response rating” value (kochia (Kochia scoparia) [12]; 500 g ai/ha) was 100, the “Pigweed plant response rating” value ([13]; 125 g ai/ha) was 100 and the “Pigweed plant response rating” value ([13]; 500 g ai/ha) was 100. For the same compound, the “Foxtail, Giant plant response rating” value ([14]; 125 g ai/ha) was 100, the “Foxtail, Giant plant response rating” value ([14]; 500 g ai/ha) was 100 and the “Ryegrass, Italian plant response rating” value ([15]; 125 g ai/ha) was 90. The “Ryegrass, Italian plant response rating” value ([15]; 500 g ai/ha) was 100, the “Ragweed plant response rating” value ([16]; 125 g ai/ha) was 30 and the “Ragweed plant response rating” value ([16]; 500 g ai/ha) was 90. The “Plant response rating, Pigweed, Palmer” value ([17]; 16 g ai/ha, scale 0 to 100) was 75, the “Plant response rating, Pigweed, Palmer” value ([17]; 31 g ai/ha, scale 0 to 100) was 85 and the “Plant response rating, Pigweed, Palmer” value ([17]; 62 g ai/ha, scale 0 to 100) was 90. For the same compound, the “Plant response rating, Pigweed, Palmer” value ([17]; 125 g ai/ha, scale of 0 to 100) was 90, the “Plant response rating, Kochia” value (kochia (Kochia scoparia) [18]; 16 g ai/ha, scale 0 to 100) was 5 and the “Plant response rating, Kochia” value (kochia (Kochia scoparia) [18]; 31 g ai/ha, scale 0 to 100) was 90. For the same compound, the “Plant response rating, Kochia” value (kochia (Kochia scoparia) [18]; 62 g ai/ha, scale 0 to 100) was 90 and the “Plant response rating, Kochia” value (kochia (Kochia scoparia) [18]; 125 g ai/ha, scale of 0 to 100) was 100.
